Experiments:
waterhemp [1] = assay: Test C postemergence; format: in vivo, Amaranthus rudis
Procedure, shortened: (§1)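 Herbicidal effect is expressed as percent visual control (0–100) judged against untreated plants 13 to 15 days after treatment in the greenhouse. Preemergence pots contained seeds in a soil–sand blend; postemergence plants, 2–18 cm tall, grew in peat-based planting medium.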

crabgrass, large = assay: Test C preemergence; format: in vivo, Digitaria sanguinalis; conditions: for Crabgrass, Large plant response rating: scale 0 to 100 (0 no effect, 100 complete control)
Procedure, shortened: as §1

johnsongrass = assay: Test C postemergence; format: in vivo, Sorghum halepense
Procedure, shortened: as §1

foxtail, giant [2] = assay: Test A preemergence; format: in vivo, Setaria faberii; conditions: preemergence
Procedure, shortened: (§2)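 Visual injury rating, 0–100 (0 no effect, 100 complete control), vs untreated controls ~10 days after treatment in greenhouse. Pre: directed soil spray on seeded loam/sand. Post: 2–10 cm plants, 1–2 leaf stage. Formulation: non-phytotoxic solvent mix + surfactant.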

foxtail, giant [3] = assay: Test A postemergence; format: in vivo, Setaria faberii
Procedure, shortened: as §2

waterhemp [4] = assay: Test C preemergence; format: in vivo, Amaranthus rudis; conditions: for Waterhemp plant response rating: scale 0 to 100 (0 no effect, 100 complete control)
Procedure, shortened: as §1

foxtail, giant [5] = assay: Test C preemergence; format: in vivo, Setaria faberii; conditions: for Foxtail, Giant plant response rating: scale 0 to 100 (0 no effect, 100 complete control)
Procedure, shortened: as §1

foxtail, giant [6] = assay: Test C postemergence; format: in vivo, Setaria faberii
Procedure, shortened: as §1

morningglory = assay: Test A postemergence; format: in vivo, Ipomoea spp.
Procedure, shortened: as §2

chickweed = assay: Test C postemergence; format: in vivo, Stellaria media
Procedure, shortened: as §1

ducksalad = assay: Test B flood; format: in vivo, Heteranthera limosa; conditions: 250 g ai/ha, visual rating on 0 to 100 scale (0 no effect, 100 complete control), 13 to 15 days
Procedure, shortened: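 Response scored visually, 0–100 relative to controls, 13–15 days after the compound was applied into paddy water; plants were at the 2-leaf stage in pots kept flooded to 3 cm.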

galium = assay: Test C postemergence; format: in vivo, Galium aparine
Procedure, shortened: as §1

oat, wild = assay: Test C postemergence; format: in vivo, Avena fatua
Procedure, shortened: as §1

[7] = Postemergence, 31 g ai/ha, visually evaluated after 13 to 15 days
[8] = postemergence, 62 g ai/ha, scale 0 to 100
[9] = postemergence, 250 g ai/ha, scale 0 to 100 (0 no effect, 100 complete control)
[10] = postemergence, 125 g ai/ha, scale 0 to 100, 0 no effect, 100 complete control
[11] = preemergence, 31 g ai/ha, visual rating, 13 to 15 days
[12] = preemergence, 62 g ai/ha, 13 to 15 days
[13] = preemergence, 125 g ai/ha, 13 to 15 days, scale 0 to 100, 0 = no effect, 100 = complete control
[14] = Postemergence, 500 g ai/ha, 0 to 100 scale (0 no effect, 100 complete control)
[15] = postemergence, 125 g ai/ha, about 10 days, visual rating on 0 to 100 scale (0 no effect, 100 complete control)

## CCONC(=O)c1cc(CC)n(Cc2ccnc(OC(F)F)c2)n1 [Compound 131]
Waterhemp [1]; [7]
  Plant response rating (scale of 0 to 100 where 0 is no effect and 100 is complete control), Waterhemp: 55
Waterhemp [1]; [8]
  Waterhemp plant response rating: 55
Waterhemp [1]; [9]
  Plant response rating, Waterhemp: 80
Waterhemp [1]; [10]
  Plant response rating, Waterhemp: 65
crabgrass, large; Preemergence, 250 g ai/ha
  Plant response rating (scale of 0 to 100), Crabgrass, Large: 100
crabgrass, large; [11]
  Crabgrass, Large plant response rating: 90
crabgrass, large; [12]
  Crabgrass, Large plant response rating: 100
crabgrass, large; [13]
  Plant response rating, Crabgrass, Large: 100
johnsongrass; [7]
  Plant response rating (scale of 0 to 100 where 0 is no effect and 100 is complete control), Johnsongrass: 0
johnsongrass; [8]
  Johnsongrass plant response rating: 0
johnsongrass; [9]
  Plant response rating, Johnsongrass: 10
johnsongrass; [10]
  Plant response rating, Johnsongrass: 0
foxtail, giant [2]; 125 g ai/ha, visual injury, 0 to 100 scale, approx. 10 days
  Foxtail, Giant plant response rating: 90
foxtail, giant [2]; 500 g ai/ha, visual injury after approx. 10 days, 0 to 100 scale (0 no effect, 100 complete control)
  Foxtail, Giant plant response rating: 100
foxtail, giant [3]; [14]
  Foxtail, Giant plant response rating: 90
foxtail, giant [3]; [15]
  Foxtail, Giant plant response rating: 80
Waterhemp [4]; Preemergence, 250 g ai/ha
  Plant response rating (scale of 0 to 100), Waterhemp: 100
Waterhemp [4]; [11]
  Waterhemp plant response rating: 100
Waterhemp [4]; [12]
  Waterhemp plant response rating: 100
Waterhemp [4]; [13]
  Plant response rating, Waterhemp: 100
foxtail, giant [5]; Preemergence, 250 g ai/ha
  Plant response rating (scale of 0 to 100), Foxtail, Giant: 100
foxtail, giant [5]; [11]
  Foxtail, Giant plant response rating: 85
foxtail, giant [5]; [12]
  Foxtail, Giant plant response rating: 100
foxtail, giant [5]; [13]
  Plant response rating, Foxtail, Giant: 100
foxtail, giant [6]; [7]
  Plant response rating (scale of 0 to 100 where 0 is no effect and 100 is complete control), Foxtail, Giant: 5
foxtail, giant [6]; [8]
  Foxtail, Giant plant response rating: 10
foxtail, giant [6]; [9]
  Plant response rating, Foxtail, Giant: 50
foxtail, giant [6]; [10]
  Plant response rating, Foxtail, Giant: 40
morningglory; [14]
  Morningglory plant response rating: 100
morningglory; [15]
  Morningglory plant response rating: 90
chickweed; [7]
  Plant response rating (scale of 0 to 100 where 0 is no effect and 100 is complete control), Chickweed: 70
chickweed; [8]
  Chickweed plant response rating: 70
chickweed; [9]
  Plant response rating, Chickweed: 80
chickweed; [10]
  Plant response rating, Chickweed: 70
ducksalad
  Plant response rating, Ducksalad: 90
galium; [7]
  Plant response rating (scale of 0 to 100 where 0 is no effect and 100 is complete control), Galium: 45
galium; [8]
  Galium plant response rating: 55
galium; [9]
  Plant response rating, Galium: 70
galium; [10]
  Plant response rating, Galium: 50
oat, wild; [7]
  Plant response rating (scale of 0 to 100 where 0 is no effect and 100 is complete control), Oat, Wild: 5
oat, wild; [8]
  Oat, Wild plant response rating: 10
oat, wild; [9]
  Plant response rating, Oat, Wild: 10
oat, wild; [10]
  Plant response rating, Oat, Wild: 15

— patent publication US20150105252A1, “SUBSTITUTED PYRAZOLES AS HERBICIDES” (E I DU PONT DE NEMOURS AND COMPANY, priority 2013, published 2015)
